Laboratory results: patent publication US9273029B2, “Pyridine-and pyrazine derivatives” (Merck Patent GmbH, priority 2011, dated 2016)

Key:
[1] = molecular target: TANK binding kinase (TBK1) (Homo sapiens (Human), UniProt Q9UHD2); test: TBK1 enzyme assay (384-well Flashplate kinase assay); format: biochemical; details: 10 μM ATP, 120 Min at 30° C.
Procedure: The kinase assay is performed as 384-well Flashplate assay (for e.g. Topcount measurement. 0.6 nM TANK binding kinase (TBK1), 800 nM biotinylated MELK-derived peptide (Biotin-Ah-Ah-[…]) SEQ ID NO: 2 and 10 μM ATP (spiked with 0.25 μCi ^33P-ATP/well) are incubated in a total volume of 50 μl (10 mM MOPS, 10 mM Mg-acetat, 0.1 mM EGTA, 1 mM DTT, 0.02% Brij35, 0.1% BSA, pH 7.5) with or without test compound for 120 Min at 30° C. The reaction is stopped with 25 μl 200 mM EDTA. After 30 Min at room temperature the liquid is removed and each well washed thrice with 100 μl 0.9% sodium chloride solution. Nonspecific reaction is determined in presence of 100 nM Staurosporine. Radioactivity is measured in a Topcount (PerkinElmer). Results (e.g. IC50-values) are calculated with program tools provided by the IT-department (e.g. AssayExplorer, Symyx).

IKKε = IKKε (Homo sapiens (Human), UniProt Q14164); test: IKKε kinase assay (384-well Flashplate); format: biochemical; details: 10 μM ATP, 2 hours at 30° C.; read-out: IKKε enzyme assay IC50
Procedure: IKKε—Kinase Assay (IKKepsilon)
The kinase assay is performed either as 384-well Flashplate assay (for e.g. Topcount measurement). 1 nM IKKε, 800 nM biotinylated IκBα(19-42) peptide (Biotin-C6-C6-[…]) SEQ ID NO: 1 and 10 μM ATP (spiked with 0.3 μCi ^33P-ATP/well) are incubated in a total volume of 50 μl (10 mM MOPS, 10 mM Mg-acetat, 0.1 mM EGTA, 1 mM Dithiothreitol,0.02% Brij35, 0.1% BSA, 0.1% BioStab, pH 7.5) with or without test compound for 2 hours at 30° C. The reaction is stopped with 25 μl 200 mM EDTA. After 30 Min at room temperature the liquid is removed and each well washed thrice with 100 μl 0.9% sodium chloride solution. Non-specific reaction is determined in presence of 3 μM MSC2119074 (BX-795). Radioactivity is measured with Topcount (PerkinElmer). Results (e.g. IC50-values) are calculated with program tools provided by the IT-department (e.g. AssayExplorer, Symyx).

IKKε, sequence (Q14164 whole entry): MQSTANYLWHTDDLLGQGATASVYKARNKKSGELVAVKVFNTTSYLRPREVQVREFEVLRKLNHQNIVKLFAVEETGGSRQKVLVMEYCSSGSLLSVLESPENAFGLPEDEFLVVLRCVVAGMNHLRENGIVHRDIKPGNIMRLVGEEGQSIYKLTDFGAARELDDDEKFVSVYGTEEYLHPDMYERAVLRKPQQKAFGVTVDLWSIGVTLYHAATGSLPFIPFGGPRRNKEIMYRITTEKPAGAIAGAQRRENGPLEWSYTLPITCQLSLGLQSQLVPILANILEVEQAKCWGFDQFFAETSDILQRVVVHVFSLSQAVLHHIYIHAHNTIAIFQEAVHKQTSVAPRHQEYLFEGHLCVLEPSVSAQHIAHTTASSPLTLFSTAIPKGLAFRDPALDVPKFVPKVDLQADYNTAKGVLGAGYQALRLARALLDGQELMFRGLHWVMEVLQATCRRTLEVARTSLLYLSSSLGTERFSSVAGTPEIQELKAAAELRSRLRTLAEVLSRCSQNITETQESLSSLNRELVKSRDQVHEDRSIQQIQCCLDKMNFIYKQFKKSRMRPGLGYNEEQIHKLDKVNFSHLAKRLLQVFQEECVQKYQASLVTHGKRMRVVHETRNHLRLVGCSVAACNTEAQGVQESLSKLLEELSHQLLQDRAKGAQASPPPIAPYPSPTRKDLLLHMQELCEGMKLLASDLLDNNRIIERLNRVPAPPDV
TANK binding kinase (TBK1), sequence (Q9UHD2 whole entry): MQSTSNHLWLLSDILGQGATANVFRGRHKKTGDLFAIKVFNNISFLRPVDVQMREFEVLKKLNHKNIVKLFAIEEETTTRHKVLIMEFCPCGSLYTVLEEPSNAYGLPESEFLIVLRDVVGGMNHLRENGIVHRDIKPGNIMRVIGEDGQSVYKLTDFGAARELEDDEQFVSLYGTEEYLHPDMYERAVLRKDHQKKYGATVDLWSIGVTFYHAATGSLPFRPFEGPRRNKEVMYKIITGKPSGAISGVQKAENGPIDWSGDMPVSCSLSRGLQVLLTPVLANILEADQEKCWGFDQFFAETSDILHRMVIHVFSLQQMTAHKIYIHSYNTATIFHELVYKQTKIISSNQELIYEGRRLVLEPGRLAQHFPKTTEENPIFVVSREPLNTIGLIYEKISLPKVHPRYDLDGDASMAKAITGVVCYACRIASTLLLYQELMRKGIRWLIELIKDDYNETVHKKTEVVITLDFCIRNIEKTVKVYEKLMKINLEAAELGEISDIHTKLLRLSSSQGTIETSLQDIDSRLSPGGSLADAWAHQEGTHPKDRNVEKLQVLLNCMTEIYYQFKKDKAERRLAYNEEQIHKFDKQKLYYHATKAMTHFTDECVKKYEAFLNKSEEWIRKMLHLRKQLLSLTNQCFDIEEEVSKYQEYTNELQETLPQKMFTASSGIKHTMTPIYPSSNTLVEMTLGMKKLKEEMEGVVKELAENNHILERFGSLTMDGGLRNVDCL

| SMILES | IC50 [1] [nM] | IC50 (IKKε) [nM] |
| --- | --- | --- |
| Nc1ncc(-c2ccc(C(=O)O)cc2)cc1C(=O)Nc1ccncc1 [Compound A31, 4-[6-Amino-5-(pyridin-4-ylcarbamoyl)-pyridin-3-yl]-benzoic acid] | 400 | 990 |
| NC(=O)Cn1cc(-c2cnc(N)c(C(=O)Nc3ccncc3)c2)cn1 [Compound A25, 2-Amino-5-(1-carbamoylmethyl-1H-pyrazol-4-yl)-N-pyridin-4-yl-nicotinamide] | 360 | 530 |
| Nc1ncc(-c2ccsc2)cc1C(=O)Nc1ccncc1 [Compound A49, 2-Amino-N-pyridin-4-yl-5-thiophen-3-yl-nicotinamide] | 410 | 930 |
| Cc1cc(NC(=O)c2cc(-c3ccc(CN4CCOCC4)s3)cnc2N)cc(C)n1 [Compound A26, 2-Amino-N-(2,6-dimethyl-pyridin-4-yl)-5-(5-morpholin-4-ylmethyl-thiophen-2-yl)-nicotinamide] | 8200 | 5200 |
| Nc1ncc(-c2ccc(CN3CCOCC3)s2)cc1C(=O)Nc1ccncn1 [Compound A27, 2-Amino-5-(5-morpholin-4-ylmethyl-thiophen-2-yl)-N-pyrimidin-4-yl-nicotinamide] | 810 | 2600 |
| Nc1ncc(-c2ccc(CN3CCCC3)s2)nc1C(=O)Nc1ccncc1 [Compound A14, 3-Amino-6-(5-pyrrolidin-1-ylmethyl-thiophen-2-yl)-pyrazine-2-carboxylic acid pyridin-4-ylamide] | 4200 | 1900 |
| COCCn1cc(-c2cnc(N)c(C(=O)Nc3ccnc(C)c3)c2)cn1 [Compound A20, 2-Amino-5-[1-(2-methoxy-ethyl)-1H-pyrazol-4-yl]-N-(2-methyl-pyridine-4-yl)-nicotinamide] | 1200 | 610 |
| Nc1ncc(-c2cnn(CC3OCCO3)c2)nc1C(=O)Nc1ccncc1 [Compound A12, 3-Amino-6-(1-[1,3]dioxolan-2-ylmethyl-1H-pyrazol-4-yl)-pyrazine-2-carboxylic acid pyridin-4-ylamide] | 8300 | 1000 |
| Nc1ncc(-c2cccc(-n3cccn3)c2)cc1C(=O)Nc1ccnnc1 [Compound A18, 2-Amino-5-(3-pyrazol-1-yl-phenyl)-N-pyridazin-4-yl-nicotinamide] | 790 | 640 |
| Nc1ncc(-c2cnn(CCO)c2)cc1C(=O)Nc1ccncc1 [Compound A42, 2-Amino-5-[1-(2-hydroxy-ethyl)-1H-pyrazol-4-yl]-N-pyridin-4-yl-nicotinamide] | 670 | 1700 |
| Nc1ncc(-c2ccc(CN3CCCCC3)s2)nc1C(=O)Nc1ccncc1 [Compound A13, 3-Amino-6-(5-piperidin-1-ylmethyl-thiophen-2-yl)-pyrazine-2-carboxylic acid pyridin-4-ylamide] | 4000 | 1900 |
| Cc1ccc(-c2cccc(-c3cnc(N)c(C(=O)Nc4ccncc4)c3)c2)cc1 [Compound A23, 2-Amino-5-(4′-methyl-biphenyl-3-yl)-N-pyridin-4-yl-nicotinamide] | 7400 | 2200 |
| COC(=O)c1ccc(-c2cnc(N)c(C(=O)Nc3ccncc3)c2)cc1 [Compound A30, 4-[6-Amino-5-(pyridin-4-ylcarbamoyl)-pyridin-3-yl]-benzoic acid methyl ester] | 1600 | 1900 |
| Cc1cc(NC(=O)c2cc(-c3csc(CN4CCOCC4)c3)cnc2N)ccn1 [Compound A15, 2-Amino-N-(2-methyl-pyridin-4-yl)-5-(5-morpholin-4-ylmethyl-thiophen-3-yl)-nicotinamide] | 670 | 2000 |
| Nc1ncc(-c2cc3ccccc3[nH]2)cc1C(=O)Nc1ccncc1 [Compound A55, 2-Amino-5-(1H-indol-2-yl)-N-pyridin-4-yl-nicotinamide] | 390 | – |
| Nc1ncc(-c2cc3ccccc3s2)cc1C(=O)Nc1ccncc1 [Compound A52, 2-Amino-5-benzo[b]thiophen-2-yl-N-pyridin-4-yl-nicotinamide] | 630 | – |
| COCCn1cc(-c2cnc(N)c(C(=O)Nc3ccnnc3)c2)cn1 [Compound A24, 2-Amino-5-[1-(2-methoxy-ethyl)-1H-pyrazol-4-yl]-N-pyridazin-4-yl-nicotinamide] | 1200 | 890 |
| Nc1ncc(-c2ccc(CN3CCOCC3)s2)cc1C(=O)Nc1ccnc2ccoc12 [Compound A29, 2-Amino-N-furo[3,2-b]pyridin-7-yl-5-(5-morpholin-4-ylmethyl-thiophen-2-yl)-nicotinamide] | 890 | 2400 |
| Nc1ncc(-c2cnc3ccccn23)cc1C(=O)Nc1ccncc1 [Compound A58] | 370 | 1800 |
| COCCn1cc(-c2cnc(N)c(C(=O)Nc3ccncc3Cl)c2)cn1 [Compound A38, 2-Amino-N-(3-chloro-pyridin-4-yl)-5-[1-(2-methoxy-ethyl-)-1H-pyrazol-4-yl]nicotinamide] | 740 | 1500 |
| Nc1ncc(-c2ccc(CN3CCOCC3)s2)nc1C(=O)Nc1ccncc1 [Compound A10, 3-Amino-6-(5-morpholin-4-ylmethyl-thiophen-2-yl)-pyrazine-2-carboxylic acid pyridin-4-ylamide] | 1000 | – |
| COC(=O)c1cnccc1NC(=O)c1cc(-c2ccc(CN3CCOCC3)s2)cnc1N [Compound A35, 4-{[2-Amino-5-(5-morpholin-4-ylmethyl-thiophen-2-yl)-pyridine-3-carbonyl]-amino}-nicotinic acid methyl ester] | 450 | – |

These reach a lower IC50 [1]. Values come first.

| IC50 [1] [nM] | IC50 (IKKε) [nM] | SMILES |
| --- | --- | --- |
| 330 | 380 | Cn1ccc(-c2cnc(N)c(C(=O)Nc3ccncc3)c2)n1 [Compound A47, 2-Amino-5-(1-methyl-1H-pyrazol-3-yl)-N-pyridin-4-yl-nicotinamide] |
| 320 | – | Cn1cccc1-c1cnc(N)c(C(=O)Nc2ccncc2)c1 [Compound A50, 2-Amino-5-(1-methyl-1H-pyrrol-2-yl)-N-pyridin-4-yl-nicotinamide] |
| 250 | 600 | Nc1ncc(-c2ccc(CN3CCOCC3)s2)cc1C(=O)Nc1ccncc1Cl [Compound A33, 2-Amino-N-(3-chloro-pyridin-4-yl)-5-(5-morpholin-4-ylmethyl-thiophen-2-yl)-nicotinamide] |
| 250 | 600 | Nc1ncc(-c2ccc(CCC(=O)O)cc2)cc1C(=O)Nc1ccncc1 [Compound A32, 3-{4-[6-Amino-5-(pyridin-4-ylcarbamoyl)-pyridin-3-yl]-phenyl}-propionic acid] |
| 230 | 300 | Nc1ncc(-c2coc3ccccc23)cc1C(=O)Nc1ccncc1 [Compound A60, 2-Amino-5-benzofuran-3-yl-N-pyridin-4-yl-nicotinamide] |
| 190 | 540 | CC(=O)Nc1cc(NC(=O)c2cc(-c3ccc(CN4CCOCC4)s3)cnc2N)ccn1 [Compound A36, N-(2-Acetylamino-pyridin-4-yl)-2-amino-5-(5-morpholin-4-ylmethyl-thiophen-2-yl)-nicotinamide] |
| 160 | 510 | CC(=O)c1ccc(-c2cnc(N)c(C(=O)Nc3ccncc3)c2)s1 [Compound A53, 5-(5-Acetyl-thiophen-2-yl)-2-amino-N-pyridin-4-yl-nicotinamide] |
| 160 | 480 | Cn1cc(-c2cnc(N)c(C(=O)Nc3ccncc3)c2)cn1 [Compound A61, 2-Amino-5-(1-methyl-1H-pyrazol-4-yl)-N-pyridin-4-yl-nicotinamide] |
| 150 | 830 | Nc1ncc(-c2cc[nH]c2)cc1C(=O)Nc1ccncc1 [Compound A59, 2-Amino-N-pyridin-4-yl-5-(1H-pyrrol-3-yl)-nicotinamide] |
| 140 | 330 | Nc1ncc(-c2csc(CN3CCOCC3)c2)cc1C(=O)Nc1ccncc1 [Compound A43, 2-Amino-5-(5-morpholin-4-ylmethyl-thiophen-3-yl)-N-pyridin-4-yl-nicotinamide] |
| 130 | 110 | Nc1ncc(-c2ccc(CN3CCCC3)s2)cc1C(=O)Nc1ccncc1 [Compound A2, 2-Amino-N-pyridin-4-yl-5-(5-pyrrolidin-1-ylmethyl-thiophen-2-yl)-nicotinamide] |
| 120 | 150 | Cc1ccc(-c2cnc(N)c(C(=O)Nc3ccncc3)c2)s1 [Compound A3, 2-Amino-5-(5-methyl-thiophen-2-yl)-N-pyridin-4-yl-nicotinamide] |
| 88 | 450 | Nc1ncc(-c2ccc(CN3CCOCC3)s2)cc1C(=O)Nc1ccncc1 [Compound A54, 2-Amino-5-(5-morpholin-4-ylmethyl-thiophen-2-yl)-N-pyridin-4-yl-nicotinamide] |
